These results are taken from patent publication US11919902B2, “Aryl-bipyridine amine derivatives as phosphatidylinositol phosphate kinase inhibitors” (HiberCell, Inc., priority 2017, dated 2024).

The target in one experiment is T1, GST tagged PIP4KtypeIIA (Homo sapiens, UniProt P48426).
T1 construct: made in house; host or cells: E. coli
T1 sequence (P48426 1-406): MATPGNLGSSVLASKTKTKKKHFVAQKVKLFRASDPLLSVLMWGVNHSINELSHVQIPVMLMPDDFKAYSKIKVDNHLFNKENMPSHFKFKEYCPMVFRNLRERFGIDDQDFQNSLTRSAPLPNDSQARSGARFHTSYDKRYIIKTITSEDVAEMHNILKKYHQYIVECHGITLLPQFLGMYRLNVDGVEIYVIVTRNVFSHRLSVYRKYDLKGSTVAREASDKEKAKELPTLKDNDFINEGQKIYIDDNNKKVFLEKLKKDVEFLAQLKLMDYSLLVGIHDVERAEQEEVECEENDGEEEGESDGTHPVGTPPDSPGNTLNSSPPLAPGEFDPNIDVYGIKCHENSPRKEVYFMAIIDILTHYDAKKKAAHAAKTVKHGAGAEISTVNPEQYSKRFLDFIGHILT
Description: ADP-glo kinase assay PIP4K 2A (PIP4KtypeIIA inhibition assay). The experiment is classed as biochemical. Conditions: Table 3; compounds listed under IC50 range headings; 10 uM ATP, 0.5 nM PIP4KIIA. The source says:
GST tagged PIP4KtypeIIA and B enzymes were overexpressed in E. Coli and purified to >80% homogeneity. Phosphatidyl inositol-5-phosphate (PI5P, Cat. #850152, Avanti Polar Lipids Inc.) was used as the lipid substrate and phosphatidyl ethanolamine (DOPE 18:1, Cat. #850725, Avanti Polar Lipids Inc.) was used as the carrier lipid for assays. Ultrapure ATP and GTP was purchased from Bellbrooke Labs. ADP Glo reagents were obtained from Promega. Transcreener FI reagent was obtained from Bellbrooke labs.
1. HEPES buffer mix: 200 mM HEPES pH 7.4, 50 mM MgCl2, 0.05% v/v triton×100
2. HNE buffer: 20 mM HEPES, pH 7.4, 100 mM NaCl, 0.5 mM EGTA
3. H:E buffer: 30 mM HEPES, pH 7.4, 1 mM EGTA
Enzyme preparation: GST-tagged PIP4KtypeIIA (5 uL, 1.43 mg/mL) was diluted (1:10) to 50 uL using HNE buffer. From the 1:10 diluted stock, a 6.4 uL aliquot was diluted further to 5 mL using HNE buffer to yield 5× enzyme stock (2.5 nM).
Lipid Preparation: In a 10 mL pyrex glass vial, lug of PI5P and lug of DOPE were suspended in 2.5 mL of HEPES buffer mix and 2.5 mL of H:E buffer. The contents were mixed and sonicated for 3 min to yield a translucent lipid stock.
Compound Preparation: Compounds were stored as 5 mM stocks in neat DMSO as room temperature in glass vials. 5 mM stocks were diluted to 2 mM and then serially diluted (3×) in neat DMSO in 96 well polypropylene plates. From the serially diluted stocks, 3 uL was delivered into 250 uL of 25% DMSO (in water) to generate 5× compound stocks. Typically, the highest compound conc. was 24 uM.
The assay volume was kept at 25 uL. To each well of the reaction plate, 10 uL of lipid stock (1:1 ratio PI5P:DOPE) was delivered. This was followed by the addition of 5 uL of compound in 25% DMSO. Then, to each well, 5 uL of 2.5 nM (5×) typeIIA enzyme was delivered. The contents were mixed well and incubated for 1 h at 27 C. After 1 h, reaction was initiated by adding 5 uL of 50 uM ATP and the contents were mixed well with a multi-channel pipetteman. The final concentration of the reagents are as follows: 50 mM HEPES, pH 7.3, 10 mM MgCl2, 20 mM NaCl, 0.01% v/v triton-X100, 5% DMSO, 10 uM ATP, 80 uM (2 ug) PI5P, 2 ug DOPE, and 0.5 nM PIP4KIIA. Typically, the highest conc. of compounds was 4.8 uM and the lowest conc. was 0.
After 1 hr, the reaction was quenched by adding 25 uL of ADP Glo reagent. The contents were incubated for 1 hr. Afterwards, 50 uL of kinase detection reagent was delivered. The contents were incubated for another hour. The luminescence was read using Molecular Devices Paradigm plate reader. […] The blanks were averaged and subtracted from all other wells. Using a calibration curve, RLU was converted to uM ADP (product). IC50 was calculated by plotting the residual activity (expressed as % No inhibitor control) vs. log [Inh. conc.]
(ADP-Glo first removes unused ATP, then detects ADP through luciferase.)

The target of the next experiment is T2, GST tagged PIP4KtypeIIB (Homo sapiens, UniProt P78356).
T2 construct: made in house; host or cells: E. coli
T2 sequence (P78356 1-416): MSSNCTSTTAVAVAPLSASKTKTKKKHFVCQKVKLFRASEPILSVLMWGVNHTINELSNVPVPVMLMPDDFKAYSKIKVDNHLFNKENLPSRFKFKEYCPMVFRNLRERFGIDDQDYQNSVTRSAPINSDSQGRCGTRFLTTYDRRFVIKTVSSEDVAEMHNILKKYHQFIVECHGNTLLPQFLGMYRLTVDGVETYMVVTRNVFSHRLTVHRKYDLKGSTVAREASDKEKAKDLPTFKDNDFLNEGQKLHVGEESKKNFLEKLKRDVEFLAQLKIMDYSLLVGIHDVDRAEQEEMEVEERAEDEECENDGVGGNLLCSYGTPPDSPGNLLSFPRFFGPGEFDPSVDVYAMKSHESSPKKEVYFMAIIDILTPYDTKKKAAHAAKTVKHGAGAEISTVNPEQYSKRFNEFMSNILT
Description: Trans-FI P kinase assay PIP4K2B (PIP4KtypeIIB inhibition assay). The format is biochemical. The settings on record: Table 4; compounds listed under IC50 range headings; 100 uM GTP, 5 nM PIP4KIIB; read-out: Trans-FI P kinase assays: PIP4K2B IC50. The gist of the method:
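Purified GST-PIP4KIIB (5 nM final), 1 h preincubation with compound at 27 C, then 2 h reaction with 100 uM GTP and 80 uM PI5P plus DOPE carrier lipid in pH 7.3 HEPES/MgCl2/Triton buffer with 5% DMSO. GDP read by Transcreener FI fluorescence against a calibration curve; IC50 from % no-inhibitor activity vs log concentration.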

SMILES strings stand for the structures.

What is called IC50 is the point on the concentration scale where inhibition reaches its midpoint. In the case of `O=C(NCc1nc2ccccc2o1)c1cc2c(-c3cncc(-c4ccc(N5CCCC5=O)cc4)c3)ccnc2[nH]1` [Example 245, N-(benzo[d]oxazol-2-ylmethyl)-4-(5-(4-(2-oxopyrrolidin-1-yl)phenyl)pyridin-3-yl)-1H-pyrrolo[2,3-b]pyridine-2-carboxamide], the half-inhibitory concentration (IC50) against GST tagged PIP4KtypeIIA is above 5000 nM; at GST tagged PIP4KtypeIIB, 10 to 100 nM.

With `CN(C)C(=O)c1cnc2ccn(-c3cncc(-c4ccc(N5CCCC5=O)cc4)c3)c2c1` [Example 254, N,N-dimethyl-1-(5-(4-(2-oxopyrrolidin-1-yl)phenyl)pyridin-3-yl)-1H-pyrrolo[3,2-b]pyridine-6-carboxamide], the IC50 against GST tagged PIP4KtypeIIA and at GST tagged PIP4KtypeIIB was 100 to 1000 nM each time.

Turning to `C[C@@H](O)c1cnc2c(c1)c(-c1cncc(-c3ccc(N4CCCC4=O)cc3)c1)cn2C` [Example 293, (R)-1-(4-(5-(5-(1-hydroxyethyl)-1-methyl-1H-pyrrolo[2,3-b]pyridin-3-yl)pyridin-3-yl)phenyl)pyrrolidin-2-one], the concentration for half-maximal inhibition (IC50) against GST tagged PIP4KtypeIIA and on GST tagged PIP4KtypeIIB was 100 to 1000 nM in each case.

Turning to `Cn1c(C(N)=O)cc2c(-c3cncc(-c4ccc(N5CCCC5=O)cc4)c3)cn(C)c2c1=O` [Example 263, 1,6-dimethyl-7-oxo-3-(5-(4-(2-oxopyrrolidin-1-yl)phenyl)pyridin-3-yl)-6,7-dihydro-1H-pyrrolo[2,3-c]pyridine-5-carboxamide], the 50% inhibitory concentration (IC50) on GST tagged PIP4KtypeIIA and on GST tagged PIP4KtypeIIB was 1000 to 2500 nM each time.

With `C[C@@H]1CC(=O)N(c2ccc(-c3cncc(-c4ccnc5c4cc4n5CCN(C)C4=O)c3)cc2)C1` [Example 198, (R)-7-methyl-4-(5-(4-(4-methyl-2-oxopyrrolidin-1-yl)phenyl)pyridin-3-yl)-8,9-dihydropyrido[3′,2′:4,5]pyrrolo[1,2-a]pyrazin-6(7H)-one], the 50% inhibitory concentration (IC50) against GST tagged PIP4KtypeIIA fell in the range of 100 to 1000 nM; on GST tagged PIP4KtypeIIB, 10 to 100 nM.

For the molecule `CN(C)C(=O)c1ccc(-c2cc(-c3ccnc4[nH]c(C(=O)NC5CCNC5=O)cc34)cnc2N)nc1` (stereo not shown) [Example 149, 4-(2′-amino-5-(dimethylcarbamoyl)-[2,3′-bipyridin]-5′-yl)-N-(2-oxopyrrolidin-3-yl)-1H-pyrrolo[2,3-b]pyridine-2-carboxamide], the IC50 against GST tagged PIP4KtypeIIA was 1000 to 2500 nM; at GST tagged PIP4KtypeIIB, 10 to 100 nM.

As to `O=C(NCc1ccccn1)c1cc2c(-c3cncc(-c4ccc(N5CCCC5=O)cc4)c3)ccnc2[nH]1` [Example 239, 4-(5-(4-(2-oxopyrrolidin-1-yl)phenyl)pyridin-3-yl)-N-(pyridin-2-ylmethyl)-1H-pyrrolo[2,3-b]pyridine-2-carboxamide], the IC50 against GST tagged PIP4KtypeIIA lay within 100 to 1000 nM; on GST tagged PIP4KtypeIIB, 10 to 100 nM.

As for `CC(O)c1cnc2c(c1)c(-c1cncc(-c3ccc(N4CCCC4=O)cc3)c1)c1n2CCC1` (stereo not shown) [Example 351, 1-(4-(5-(3-(1-hydroxyethyl)-7,8-dihydro-6H-pyrido[3,2-b]pyrrolizin-5-yl)pyridin-3-yl)phenyl)pyrrolidin-2-one], the half-inhibitory concentration (IC50) on GST tagged PIP4KtypeIIA and on GST tagged PIP4KtypeIIB was 10 to 100 nM in each case.

As for `COCCNC(=O)c1cc2c(-c3cncc(-c4ccc(N5CCCC5=O)cc4)c3)ccnc2[nH]1` [Example 228, N-(2-methoxyethyl)-4-(5-(4-(2-oxopyrrolidin-1-yl)phenyl)pyridin-3-yl)-1H-pyrrolo[2,3-b]pyridine-2-carboxamide], the IC50 against GST tagged PIP4KtypeIIA is 100 to 1000 nM; at GST tagged PIP4KtypeIIB, 10 to 100 nM.

Take `Cc1cc(N2CCCC2=O)ccc1-c1cncc(-c2cn(C)c3ncc(C(C)O)cc23)c1` (stereo not shown) [Example 197, 1-(4-(5-(5-(1-hydroxyethyl)-1-methyl-1H-pyrrolo[2,3-b]pyridin-3-yl)pyridin-3-yl)-3-methylphenyl)pyrrolidin-2-one]: the IC50 against GST tagged PIP4KtypeIIA and at GST tagged PIP4KtypeIIB was 100 to 1000 nM in each case.

Turning to `CN(C)C(=O)c1ccc(-c2cc(-c3ccnc4[nH]c(C(=O)NC5COC5)cc34)cnc2N)nc1` [Example 146, 4-(2′-amino-5-(dimethylcarbamoyl)-[2,3′-bipyridin]-5′-yl)-N-(oxetan-3-yl)-1H-pyrrolo[2,3-b]pyridine-2-carboxamide], the half-maximal inhibitory concentration (IC50) at GST tagged PIP4KtypeIIA was 100 to 1000 nM; on GST tagged PIP4KtypeIIB, 10 to 100 nM.

In the case of `CCc1cccc2c1CC(=O)N2c1ccc(-c2cncc(-c3ccnc4c3cc3n4CCN(C)C3=O)c2)cc1` [Example 209, 4-(5-(4-(4-ethyl-2-oxoindolin-1-yl)phenyl)pyridin-3-yl)-7-methyl-8,9-dihydropyrido[3′,2′:4,5]pyrrolo[1,2-a]pyrazin-6(7H)-one], the IC50 is above 5000 nM against GST tagged PIP4KtypeIIA and 1000 to 2500 nM at GST tagged PIP4KtypeIIB.

For `CC(C)CNC(=O)c1cc2c(-c3cncc(-c4ccc(N5CCCC5=O)cc4)c3)ccnc2[nH]1` [Example 234, N-isobutyl-4-(5-(4-(2-oxopyrrolidin-1-yl)phenyl)pyridin-3-yl)-1H-pyrrolo[2,3-b]pyridine-2-carboxamide], the values for the IC50 against GST tagged PIP4KtypeIIA and on GST tagged PIP4KtypeIIB were 100 to 1000 nM and 10 to 100 nM, respectively.

As for `CNC(=O)c1cc2c(-c3cncc(-c4ccc(N5CCCC5=O)cc4)c3)ccnc2[nH]1` [Example 240, N-methyl-4-(5-(4-(2-oxopyrrolidin-1-yl)phenyl)pyridin-3-yl)-1H-pyrrolo[2,3-b]pyridine-2-carboxamide], the IC50 on GST tagged PIP4KtypeIIA lay in the range of 100 to 1000 nM; at GST tagged PIP4KtypeIIB, 10 to 100 nM.

`O=C1CCCN1c1ccc(-c2cncc(-c3csc4ncccc34)c2)cc1` [Example 292, 1-(4-(5-(thieno[2,3-b]pyridin-3-yl)pyridin-3-yl)phenyl)pyrrolidin-2-one]: the half-maximal inhibitory concentration (IC50) against GST tagged PIP4KtypeIIA and at GST tagged PIP4KtypeIIB was 100 to 1000 nM in each case.

`O=C1CCCN1c1ccc(-c2cncc(-n3ccc4ncccc43)c2)cc1` [Example 253, 1-(4-(5-(1H-pyrrolo[3,2-b]pyridin-1-yl)pyridin-3-yl)phenyl)pyrrolidin-2-one]: the half-maximal inhibitory concentration (IC50) on GST tagged PIP4KtypeIIA and on GST tagged PIP4KtypeIIB was 100 to 1000 nM each time.

In the case of `O=C(NCc1cccnc1)c1cc2c(-c3cncc(-c4ccc(N5CCCC5=O)cc4)c3)ccnc2[nH]1` [Example 238, 4-(5-(4-(2-oxopyrrolidin-1-yl)phenyl)pyridin-3-yl)-N-(pyridin-3-ylmethyl)-1H-pyrrolo[2,3-b]pyridine-2-carboxamide], the IC50 against GST tagged PIP4KtypeIIA is 100 to 1000 nM; on GST tagged PIP4KtypeIIB, 10 to 100 nM.
